In PMC8347364 (International Journal of Molecular Sciences, 2021):

Experiments:
ureG = target: T1, ureG (uncultured rumen bacterium, UniProt A0A6M3RDS9); assay: malachite green GTPase assay, single concentration […], almost […] inhibition; format: biochemical
T1 construct: Strep-tagged UreG (GenBank ID: MN660252)

(UniProt A0A6M3RDS9) = target: T2, (UniProt A0A6M3RDS9); assay: malachite green GTPase assay (IC50); Lineweaver-Burk Ki […]; CD change; ITC of nickel binding in its presence; format: biochemical, uncultured rumen bacterium
T2 construct: gene ureG; Strep-tagged UreG (GenBank ID: MN660252)
T2 sequence (A0A6M3RDS9 1-203): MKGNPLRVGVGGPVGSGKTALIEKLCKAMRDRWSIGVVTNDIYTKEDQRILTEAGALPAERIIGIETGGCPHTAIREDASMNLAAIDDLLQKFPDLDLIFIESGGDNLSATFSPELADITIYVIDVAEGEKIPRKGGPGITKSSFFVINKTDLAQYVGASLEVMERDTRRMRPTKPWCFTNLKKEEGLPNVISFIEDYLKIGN

T1 sequence (A0A6M3RDS9 1-203): as above

Compound	inhibition at 100 µM (ureG) [%]	IC50 ((UniProt A0A6M3RDS9)) [µM]
O=C(/C=C/c1ccc(O)c(O)c1)O[C@H]1[C@H](O)C[C@](O)(C(=O)O)C[C@H]1OC(=O)/C=C/c1ccc(O)c(O)c1 [isochlorogenic acid B]	~100	–
C=C(C)[C@@H]1CC[C@]2(C(=O)O)CC[C@]3(C)[C@H](CC[C@@H]4[C@@]5(C)CC[C@H](O)[C@@](C)(CO)[C@@H]5CC[C@]43C)[C@@H]12 [anemosapogenin]	~100	–
COc1ccc2c(c[n+](C)c3c4cc5c(cc4ccc23)OCO5)c1OC [chelerythrine chloride]	–	18.1
